PubChem BioAssay AID256 (DTP/NCI, 2004)
Several values for one entry are separate records, joined by “and”; a condition that tells them apart may be missing. Equal entries are not always repeated. Inconclusive results and toxic doses are left out.

Tested on: CD2F1 mice, L1210 leukemia ip, survival T/C
Test: NCI In Vivo Anticancer Drug Screen. Data for tumor model L1210 Leukemia (intraperitoneal) in CD2F1 (CDF1) mice
Conditions: higher = longer survival
Method in brief: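 Each value reflects a quotient of treated over vehicle control outcomes in mice with a transplanted tumor.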

[1] = endpoint: mean survival time, dose: 100.0 mg/kg/injection, schedule: Q01DX009 (ip), vehicle: saline with Tween-80
[2] = endpoint: mean survival time, dose: 100.0 mg/kg/injection, schedule: Q04DX003 (ip), vehicle: saline with Tween-80
[3] = endpoint: mean survival time, dose: 200.0 mg/kg/injection, schedule: Q01DX009 (ip), vehicle: saline with Tween-80
[4] = endpoint: mean survival time, dose: 200.0 mg/kg/injection, schedule: Q04DX003 (ip), vehicle: saline with Tween-80
[5] = endpoint: mean survival time, dose: 400.0 mg/kg/injection, schedule: Q04DX003 (ip), vehicle: saline with Tween-80
[6] = endpoint: mean survival time, dose: 50.0 mg/kg/injection, schedule: Q01DX009 (ip), vehicle: saline with Tween-80
[7] = endpoint: mean survival time, dose: 100.0 mg/kg/injection, schedule: Q01DX009 (ip), vehicle: saline
[8] = endpoint: mean survival time, dose: 100.0 mg/kg/injection, schedule: Q04DX003 (ip), vehicle: saline
[9] = endpoint: mean survival time, dose: 200.0 mg/kg/injection, schedule: Q01DX009 (ip), vehicle: saline
[10] = endpoint: mean survival time, dose: 50.0 mg/kg/injection, schedule: Q01DX009 (ip), vehicle: Klucel (hydroxypropylcellulose) (HPC)
[11] = endpoint: mean survival time, dose: 100.0 mg/kg/injection, schedule: Q01DX009 (ip), vehicle: Klucel (hydroxypropylcellulose) (HPC)
[12] = endpoint: mean survival time, dose: 200.0 mg/kg/injection, schedule: Q01DX009 (ip), vehicle: Klucel (hydroxypropylcellulose) (HPC)

Structure (SMILES): CCCCCCCCCCCC(CCCCCCC)c1ccc(C)cc1 (stereo not drawn)
- T/C (endpoint: mean survival time, dose: 100.0 mg/kg/injection, schedule: Q01DX001 (ip), vehicle: saline): 91 % of control
- T/C (endpoint: mean survival time, dose: 200.0 mg/kg/injection, schedule: Q01DX001 (ip), vehicle: saline): 94 % of control
- T/C (endpoint: mean survival time, dose: 400.0 mg/kg/injection, schedule: Q01DX001 (ip), vehicle: saline): 97 % of control

Structure (SMILES): O=C1c2ccccc2-c2cc([N+](=O)[O-])c(Cl)cc21
- T/C (endpoint: mean survival time, dose: 50.0 mg/kg/injection, schedule: Q04DX003 (ip), vehicle: Klucel (hydroxypropylcellulose) (HPC)): 91 % of control
- T/C (endpoint: mean survival time, dose: 100.0 mg/kg/injection, schedule: Q04DX003 (ip), vehicle: Klucel (hydroxypropylcellulose) (HPC)): 96 % of control
- T/C (endpoint: mean survival time, dose: 200.0 mg/kg/injection, schedule: Q04DX003 (ip), vehicle: Klucel (hydroxypropylcellulose) (HPC)): 94 % of control

Structure (SMILES): COc1ccc(OC)c(-c2csc(=O)s2)c1
- T/C (endpoint: mean survival time, dose: 25.0 mg/kg/injection, schedule: Q04DX002 (ip), vehicle: Klucel (hydroxypropylcellulose) (HPC)): 107 % of control
- T/C (endpoint: mean survival time, dose: 50.0 mg/kg/injection, schedule: Q04DX002 (ip), vehicle: Klucel (hydroxypropylcellulose) (HPC)): 96 % of control
- T/C (endpoint: mean survival time, dose: 100.0 mg/kg/injection, schedule: Q04DX002 (ip), vehicle: Klucel (hydroxypropylcellulose) (HPC)): 102 % of control
- T/C (endpoint: mean survival time, dose: 200.0 mg/kg/injection, schedule: Q04DX002 (ip), vehicle: Klucel (hydroxypropylcellulose) (HPC)): 102 % of control
- T/C (endpoint: mean survival time, dose: 400.0 mg/kg/injection, schedule: Q04DX002 (ip), vehicle: Klucel (hydroxypropylcellulose) (HPC)): 94 % of control

Structure (SMILES): Cc1ccc(NC(=O)CCl)cc1C
- T/C [1]: 100 % of control
- T/C [2]: 96 % of control
- T/C [3]: 97 % of control
- T/C [4]: 95 % of control
- T/C [5]: 93 % of control

Structure (SMILES): CC(=O)OCC1OC(n2ncc3c(NCc4ccco4)ncnc32)C(O)C1O (stereo not drawn)
- T/C (endpoint: mean survival time, dose: 25.0 mg/kg/injection, schedule: Q01DX009 (ip), vehicle: water): 109 % of control
- T/C (endpoint: mean survival time, dose: 50.0 mg/kg/injection, schedule: Q01DX009 (ip), vehicle: water): 97 % of control
- T/C (endpoint: mean survival time, dose: 100.0 mg/kg/injection, schedule: Q01DX009 (ip), vehicle: water): 111 % of control
- T/C (endpoint: mean survival time, dose: 200.0 mg/kg/injection, schedule: Q01DX009 (ip), vehicle: water): 102 % of control
- T/C (endpoint: mean survival time, dose: 400.0 mg/kg/injection, schedule: Q01DX009 (ip), vehicle: water): 86 % of control

Structure (SMILES): CC(NC(=O)CNC(=O)CNC(=O)OCc1ccccc1)C(=O)OCc1ccccc1 (stereo not drawn)
- T/C [2]: 97 % of control
- T/C [4]: 99 % of control
- T/C [5]: 101 % of control

Structure (SMILES): OC1OCC(COc2ccc(Cl)cc2)OC1O (stereo not drawn)
- T/C (endpoint: median survival time, dose: 25.0 mg/kg/injection, schedule: Q01DX005 (ip), vehicle: saline with Tween-80): 102 % of control
- T/C (endpoint: median survival time, dose: 50.0 mg/kg/injection, schedule: Q01DX005 (ip), vehicle: saline with Tween-80): 102 % of control
- T/C (endpoint: median survival time, dose: 100.0 mg/kg/injection, schedule: Q01DX005 (ip), vehicle: saline with Tween-80): 115 % of control
- T/C (endpoint: median survival time, dose: 144.0 mg/kg/injection, schedule: Q01DX005 (ip), vehicle: saline with Tween-80): 102 % of control
- T/C (endpoint: median survival time, dose: 200.0 mg/kg/injection, schedule: Q01DX005 (ip), vehicle: saline with Tween-80): 117 % of control
- T/C (endpoint: median survival time, dose: 240.0 mg/kg/injection, schedule: Q01DX005 (ip), vehicle: saline with Tween-80): 101 % of control
- T/C (endpoint: median survival time, dose: 400.0 mg/kg/injection, schedule: Q01DX005 (ip), vehicle: saline with Tween-80): 96 % of control

Structure (SMILES): COc1ccc(OCCOC(=O)Nc2ccc(C)c([N+](=O)[O-])c2)cc1
- T/C [6]: 92 % of control
- T/C [1]: 88 % of control
- T/C [3]: 92 % of control

Structure (SMILES): CN(C=O)NC(=O)N(CCCl)N=O
- T/C (endpoint: median survival time, dose: 3.12 mg/kg/injection, schedule: Q01DX001 (ip), vehicle: saline): 176 % of control and 200 % of control
- T/C (endpoint: median survival time, dose: 6.25 mg/kg/injection, schedule: Q01DX001 (ip), vehicle: saline): 197 % of control and 312 % of control
- T/C (endpoint: median survival time, dose: 12.5 mg/kg/injection, schedule: Q01DX001 (ip), vehicle: saline): 370 % of control and 375 % of control
- T/C (endpoint: median survival time, dose: 25.0 mg/kg/injection, schedule: Q01DX001 (ip), vehicle: saline): 370 % of control and 375 % of control
- T/C (endpoint: median survival time, dose: 50.0 mg/kg/injection, schedule: Q01DX001 (ip), vehicle: saline): 87 % of control

Structure (SMILES): OC1OCCOC1O (stereo not drawn)
- T/C [7]: 114 % of control
- T/C [8]: 99 % of control
- T/C [9]: 114 % of control
- T/C (endpoint: mean survival time, dose: 200.0 mg/kg/injection, schedule: Q04DX003 (ip), vehicle: saline): 99 % of control
- T/C (endpoint: mean survival time, dose: 400.0 mg/kg/injection, schedule: Q01DX009 (ip), vehicle: saline): 121 % of control
- T/C (endpoint: mean survival time, dose: 400.0 mg/kg/injection, schedule: Q04DX003 (ip), vehicle: saline): 115 % of control

Structure (SMILES): Cc1cccc([N+](=O)[O-])c1-c1ccccc1C(=O)O
- T/C (endpoint: mean survival time, dose: 100.0 mg/kg/injection, schedule: Q01DX001 (ip), vehicle: Klucel (hydroxypropylcellulose) (HPC)): 101 % of control
- T/C (endpoint: mean survival time, dose: 200.0 mg/kg/injection, schedule: Q01DX001 (ip), vehicle: Klucel (hydroxypropylcellulose) (HPC)): 101 % of control
- T/C (endpoint: mean survival time, dose: 400.0 mg/kg/injection, schedule: Q01DX001 (ip), vehicle: Klucel (hydroxypropylcellulose) (HPC)): 101 % of control

Structure (SMILES): O=c1[nH]c2ccc(I)cc2c(=O)o1
- T/C [2]: 101 % of control
- T/C [4]: 98 % of control
- T/C [5]: 104 % of control

Structure (SMILES): CC(=O)c1ccc2c3ccccc3n(C)c2c1
- T/C [10]: 93 % of control
- T/C [11]: 93 % of control
- T/C [12]: 93 % of control

Structure (SMILES): O=[N+]([O-])c1cc(C2CCCCC2)c(O)c([N+](=O)[O-])c1
- T/C (endpoint: mean survival time, dose: 5.0 mg/kg/injection, schedule: Q01DX009 (ip), vehicle: saline with Tween-80): 98 % of control
- T/C (endpoint: mean survival time, dose: 10.0 mg/kg/injection, schedule: Q01DX009 (ip), vehicle: saline with Tween-80): 93 % of control
- T/C (endpoint: mean survival time, dose: 20.0 mg/kg/injection, schedule: Q01DX009 (ip), vehicle: saline with Tween-80): 89 % of control

Structure (SMILES): Cc1cc(C)c(C(=O)CC(C#N)c2ccccc2)c(C)c1 (stereo not drawn)
- T/C [2]: 95 % of control
- T/C [4]: 98 % of control
- T/C [5]: 91 % of control

Structure (SMILES): CNC(=O)c1ccc(C(=O)NC)cc1
- T/C [1]: 86 % of control
- T/C [3]: 94 % of control
- T/C (endpoint: mean survival time, dose: 400.0 mg/kg/injection, schedule: Q01DX009 (ip), vehicle: saline with Tween-80): 96 % of control

Structure (SMILES): O=CC1C(=O)Nc2ccccc21 (stereo not drawn)
- T/C [6]: 96 % of control
- T/C [1]: 96 % of control
- T/C [3]: 104 % of control

Structure (SMILES): Cc1ccc(S(=O)(=O)NN2CCOC2=O)cc1
- T/C [10]: 100 % of control
- T/C [11]: 91 % of control
- T/C [12]: 100 % of control

Structure (SMILES): CC(C)(C)n1cc(C(=O)c2ccccc2)cc1-c1ccccc1
- T/C [2]: 91 % of control
- T/C [4]: 92 % of control
- T/C [5]: 86 % of control

Structure (SMILES): Cc1ccc(CCCC(=O)O)c(C)c1
- T/C [2]: 104 % of control
- T/C [4]: 93 % of control
- T/C [5]: 98 % of control

Structure (SMILES): CC1(C)COC(=O)N1
- T/C (endpoint: mean survival time, dose: 75.0 mg/kg/injection, schedule: Q01DX009 (ip), vehicle: saline with Tween-80): 104 % of control
- T/C [8]: 108 % of control
- T/C (endpoint: mean survival time, dose: 150.0 mg/kg/injection, schedule: Q01DX009 (ip), vehicle: saline with Tween-80): 101 % of control

Structure (SMILES): C=C(C)C1(Cc2ccccc2)C(=O)NC(=S)NC1=O
- T/C (endpoint: mean survival time, dose: 5.0 mg/kg/injection, schedule: Q01DX001 (ip), vehicle: saline): 102 % of control
- T/C (endpoint: mean survival time, dose: 10.0 mg/kg/injection, schedule: Q01DX001 (ip), vehicle: saline): 102 % of control
- T/C (endpoint: mean survival time, dose: 20.0 mg/kg/injection, schedule: Q01DX001 (ip), vehicle: saline): 104 % of control

Structure (SMILES): CC(C)(C)N/C(=C/C(=O)c1ccccc1)c1ccccc1
- T/C [2]: 94 % of control
- T/C [4]: 96 % of control
- T/C [5]: 95 % of control

Structure (SMILES): O=[N+]([O-])c1cccc(OCCOc2ccccc2)c1
- T/C [2]: 98 % of control
- T/C [4]: 94 % of control
- T/C [5]: 91 % of control

Structure (SMILES): CCCC1CC[N-]CC1.CCCC1CC[N-]CC1.CCCC1CC[N-]CC1.CCCC1CC[N-]CC1.CS(C)=O.CS(C)=O.[Cl-].[Cl-].[Cl-].[Cl-].[Cl][Rh][Cl].[Rh+3]
- T/C (endpoint: mean survival time, dose: 6.25 mg/kg/injection, schedule: Q01DX009 (ip), vehicle: water): 98 % of control
- T/C (endpoint: mean survival time, dose: 12.5 mg/kg/injection, schedule: Q01DX009 (ip), vehicle: water): 112 % of control
- T/C (endpoint: mean survival time, dose: 25.0 mg/kg/injection, schedule: Q04DX003 (ip), vehicle: water): 120 % of control

Structure (SMILES): CC(C)(C)[N+](=O)[O-]
- T/C (endpoint: mean survival time, dose: 50.0 mg/kg/injection, schedule: Q01DX009 (ip), vehicle: saline): 93 % of control
- T/C [7]: 93 % of control
- T/C [9]: 93 % of control

Structure (SMILES): O=C1/C(=C/c2ccccc2[N+](=O)[O-])CCc2ccccc21
- T/C [11]: 97 % of control
- T/C [12]: 91 % of control
- T/C (endpoint: mean survival time, dose: 400.0 mg/kg/injection, schedule: Q01DX009 (ip), vehicle: Klucel (hydroxypropylcellulose) (HPC)): 96 % of control

Structure (SMILES): CC(=O)Nc1ccc2ccccc2c1-c1c(NC(C)=O)ccc2ccccc12
- T/C [2]: 87 % of control
- T/C [5]: 95 % of control
